A word on the IC50: it is the concentration that inhibits the measured activity by half.

The target of test [1] is T1, human VR1 (Homo sapiens, UniProt Q8NER1).
T1 construct: expressed in transfected cells
As to the kind of experiment: Capsaicin-based assay of human VR1 (FLIPR calcium influx). Format: cell-based. As to conditions: activation by capsaicin (400 nM), HEK293-EcR cells expressing human VR1, n=3. How it is done: (§1) Human VR1 Cloning: Human spinal cord RNA (commercially available from Clontech, Palo Alto, Calif.) was used. Reverse transcription was conducted on 1.0 μg total RNA using Thermoscript Reverse Transcriptase (commercially available from Invitrogen) and oligo dT primers as detailed in its product description. Reverse transcription reactions were incubated at 55° C. for 1 h, heat-inactivated at 85° C. for 5 min, and RNase H-treated at 37° C. for 20 min.
(§2) Human VR1 cDNA sequence was obtained by comparison of the human genomic sequence, prior to annotation, to the published rat sequence. Intron sequences were removed and flanking exonic sequences were joined to generate the hypothetical human cDNA. Primers flanking the coding region of human VR1 were designed as follows: forward primer, […]; and reverse primer, […]. […]
(§3) Generation of Inducible Cell Lines: Unless noted otherwise, cell culture reagents were purchased from Life Technologies of Rockville, Md. […] On the day of assay, cells were loaded with Fluo-4 (a calcium-sensitive dye that is commercially available from Molecular Probes) and CAP-mediated calcium influx was measured using a FLIPR as described below. […]

Test [2] concerns the target T1, human VR1. As to the kind of experiment: pH-based assay of human VR1 (FLIPR calcium influx). Format: cell-based. As to conditions: agonist buffer pH 5.5, HEK293-EcR cells expressing human VR1, n=4. How it is done: as §1, §2, §3

T1 sequence (Q8NER1 whole entry): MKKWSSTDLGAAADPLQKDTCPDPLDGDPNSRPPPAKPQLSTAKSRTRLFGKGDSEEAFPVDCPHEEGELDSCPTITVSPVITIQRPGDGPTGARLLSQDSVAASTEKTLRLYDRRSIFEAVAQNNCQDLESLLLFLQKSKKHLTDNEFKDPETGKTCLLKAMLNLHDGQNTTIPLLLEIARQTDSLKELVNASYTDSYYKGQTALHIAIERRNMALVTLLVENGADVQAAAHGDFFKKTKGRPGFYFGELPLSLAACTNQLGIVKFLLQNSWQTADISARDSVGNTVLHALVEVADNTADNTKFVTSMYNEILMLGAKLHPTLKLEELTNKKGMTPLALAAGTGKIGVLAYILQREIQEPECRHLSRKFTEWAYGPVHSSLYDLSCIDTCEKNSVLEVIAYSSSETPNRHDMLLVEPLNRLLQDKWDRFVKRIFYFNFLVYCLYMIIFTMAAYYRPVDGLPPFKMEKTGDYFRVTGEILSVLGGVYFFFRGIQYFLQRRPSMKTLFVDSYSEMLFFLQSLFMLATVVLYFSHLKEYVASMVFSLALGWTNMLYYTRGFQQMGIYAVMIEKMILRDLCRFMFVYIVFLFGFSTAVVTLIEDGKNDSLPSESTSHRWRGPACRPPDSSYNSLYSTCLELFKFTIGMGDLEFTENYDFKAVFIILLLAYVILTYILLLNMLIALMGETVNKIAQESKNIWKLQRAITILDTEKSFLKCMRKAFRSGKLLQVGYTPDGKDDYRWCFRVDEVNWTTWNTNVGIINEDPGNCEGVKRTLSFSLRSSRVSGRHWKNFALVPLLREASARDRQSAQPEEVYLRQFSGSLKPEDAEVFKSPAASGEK

Take `Cc1cccnc1-c1ccc(C(=O)Nc2ccc(C(C)(C)C)cc2)nc1` [E35(a)]: the 50% inhibitory concentration (IC50) at human VR1 [1] was 65.5 ± 17.3 nM; at human VR1 [2], 826 ± 248 nM.
